Data from BindingDB's records for patent US12370182 (Richter Gedeon, 2025).

Biological target: T1, Gamma-aminobutyric acid receptor subunit alpha-5 (Homo sapiens, UniProt P31644)
T1 sequence (P31644 whole entry): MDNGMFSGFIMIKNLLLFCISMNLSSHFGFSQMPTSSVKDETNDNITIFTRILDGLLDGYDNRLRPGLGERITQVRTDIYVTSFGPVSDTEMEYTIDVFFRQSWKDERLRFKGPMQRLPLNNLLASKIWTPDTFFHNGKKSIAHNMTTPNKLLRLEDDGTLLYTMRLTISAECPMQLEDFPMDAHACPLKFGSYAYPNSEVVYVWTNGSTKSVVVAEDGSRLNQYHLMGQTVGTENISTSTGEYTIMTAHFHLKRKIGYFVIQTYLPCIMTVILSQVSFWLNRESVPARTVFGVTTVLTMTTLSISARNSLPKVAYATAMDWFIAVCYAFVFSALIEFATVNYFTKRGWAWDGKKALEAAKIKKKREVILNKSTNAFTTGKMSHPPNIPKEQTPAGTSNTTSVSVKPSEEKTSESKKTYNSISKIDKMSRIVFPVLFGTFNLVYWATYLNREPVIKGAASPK
Assay: Binding Assay
Procedure: Receptor binding assays were performed in 96-well format in deep-well plates. For each 96-well plate one ampulle of membrane homogenate was thawed and diluted in binding buffer (50 mM Tris pH=7.4, 100 mM KCl) and 200 μL was dispensed into each well. Radioligand [3H]Ro151788 (Perkin Elmer: NET757250UC) was prepared in binding buffer and added to each well in 50 μL volume to give final concentration of 0.5 nM. Test compounds in suitable concentration(s) were added in additional 50 μL. The final assay volume was 300 μL. Incubation was carried out for 60 minutes at 4° C. For non-specific binding 10 μM unlabeled diazepam was used. After incubation samples were filtered over UniFilter GF/B™ using Filtermate Harvester (Perkin Elmer) and washed with 5×1 mL binding buffer. The plate was dried at 40° C. for an hour and 40 μL Microscint (Perkin Elmer) scintillation cocktail was added to each well. The plate was read in Microbeta (Perkin Elmer).

| Ki [nM] | Compound |
| --- | --- |
| 31 | Cc1nnn(-c2ccc(F)cc2)c1COc1ccc2c(n1)CN(C(=O)C(F)(F)F)C2 [US12370182, Example 51] |
| 36 | Cc1onc(-c2ccc(F)cc2)c1COc1ccc2c(n1)CCN(C(=O)N1CCCCC1)C2 [US12370182, Example 85] |
